Assay results from US20110173718A1, “HERBICIDE TOLERANT PLANTS” (SYNGENTA CROP PROTECTION, INC., priority 2008, published 2011).
Several values for one entry are separate records, joined by “and”; a condition that tells them apart may be missing. Identical values can stand only once.

Assays:
Type in all cases: in vivo
[1] = tested on: wild-type (WT) Samsun tobacco; experiment: Glasshouse spray test, wild-type tobacco; settings: Norflurazon, 150 g/ha; 14 DAT; WT control, reps
Protocol: Rooted transgenic T0 plantlets are transferred from agar and potted into 50% peat, 50% John Innes soil no 3 or, for example, MetroMix® 380 soil (Sun Gro Horticulture, Bellevue, Wash.) with slow-release fertilizer in 3 inch round or 4 inch square pots and left regularly watered to establish for 8-12 d in the glass house. Glass house conditions are about 24-27° C. day; 18-21° C. night and approximately a 14 h (or longer in UK summer) photoperiod. Humidity is ˜65% and light levels up to 2000 μmol/m^2 at bench level. Once new tissue emerges and plants they have reached the 2-4 leaf stage some of the clones from each event are sprayed with test chemicals dissolved in water with 0.2-0.25% X-77 surfactant and sprayed from a boom on a suitable track sprayer moving at 2 mph in a DeVries spray chamber with the nozzle about 2 inches from the plant tops. Spray volume is suitably 25 gallons per acre or, for example, […].
Test chemicals are, for example, compound 2.3 at 500 g/ha. At the same time that transgenic plants are sprayed so too are w/t Samsun tobacco plants grown from seed as well as non-transgenic plants regenerated from tissue culture and non-transgenic tissue culture escapes. Damage is assessed versus unsprayed control plants of like size and development.
6 Seed from w/t Samsun tobacco and 8 T1 seed from events B8 and G9 are also planted out in 3 inch pots, grown on for 7 to 12 d and then, as described in the foregoing examples, the plantlets spray tested for resistance to various chemicals and assessed at 14 DAT. Chemicals are formulated in 0.2% X77 and sprayed at a spray volume of 200 l/ha.
Seed of wild-type tobacco plants, C2 tobacco plants and of the T1 progeny of a further Arabidopsis-HST expressing tobacco line, D2 were planted out in 3 inch pots, grown on, sprayed with compounds 1.1, 2.30 and 3.6 at the rates shown in table 5. Percent damage scores were assessed at 7 DAT. Aside from the presumptive non-transgenic segregants the D2 line containing the Arabidopis HST expression construct offered the highest level of tolerance to the two HST herbicides with the Psuedomonas HPPD, C2 line, offering only marginal tolerance under the conditions of this test.
Single copy events amongst the T1 plant lines are identified by their 3:1 segregation ratio (wrt kanamycin and or herbicide) and by quantitative RT-PCR. Seed from the thus selected T1 tobacco (var Samsun) lines are sown in 3 inch diameter pots containing 50% peat, 50% John Innes soil no 3. After growth to the 3 leaf stage, plants are sprayed, as described above, in order to test for herbicide tolerance relative to like-treated non-transgenic tobacco plants.
Control tobacco plants and transgenic T1 plants expressing either the Pseudomonas or the wheat HPPD gene are sprayed at 37, 111, 333 and 1000 g/ha rates of HST inhibitors and, for example, compound 2.3.
Plants are assessed and scored for % damage at 16 DAT.

weeds [2] = experiment: Glasshouse weed control, HST inhibitors alone and with A22, post-emergence; settings: 14 DAT, single replicate
Protocol: (§1) In a further test, the results of which are depicted in tables 18 and 19, weed seeds are planted out in trays containing 50% peat/50% John Innes no. 3 soil and grown in the glass house at 24-27 C day; 18-21 C night and approximately a 15 h photoperiod. Humidity is ˜65% and light levels at bench level are up to 2 mmol/m^2. Again all spray chemicals are dissolved in 0.2% X77 surfactant and sprayed from a boom on a track sprayer moving at 2 mph with the nozzle set about 2 inches above the plant tops. The spray volume is […]. Sprays are carried out both pre-emergence and post-emergence over small plants at about 7-12 d post-emergence. Plants are assessed at 14 DAT with herbicidal damage scored on a scale from 0 to 100%. The HPPD inhibiting herbicide is compound A22 (4-hydroxy-3-[[2-(2-methoxyethoxy)methyl]-6-(trifluoromethyl)-3-pyridinylicarbonyl]-bicyclo[3.2.1]oct-3-en-2-one) which is sprayed at 2 g/ha both alone and in mixture with various HST herbicides. Results and spray rates are depicted in Tables 18 and 19. Again the Colby formula has been used to calculate synergy scores observed following treatment with the mixture based on the results obtained with the single components alone. Positive synergy is observed between the HPPD herbicide and a wide variety of HST inhibitor herbicides applied both pre and postemergence across a variety of weeds.

weeds [3] = experiment: Glasshouse weed control, HST inhibitors alone and with A22, pre-emergence; settings: 14 DAT
Protocol: as §1

## CNc1cnn(-c2cccc(C(F)(F)F)c2)c(=O)c1Cl [Norflurazon, reference compound]
[1]
  herbicide % damage: 20% and 15% and 10%

## CC(C)C(=O)Oc1c(-c2c(Cl)cccc2C(F)(F)F)c(=O)n(CC(F)F)c2nccnc12 [Compound 2.28]
Weeds [2]; BRAPL, 15.625 g/ha alone
  % control score, Obs: 5%
Weeds [2]; BRAPL, 62.5 g/ha alone
  % control score, Obs: 50%
Weeds [2]; BRAPL, 250 g/ha alone
  % control score, Obs: 75%
Weeds [2]; DIGSA, 15.625 g/ha alone
  % control score, Obs: 10%
Weeds [2]; DIGSA, 62.5 g/ha alone
  % control score, Obs: 50%
Weeds [2]; DIGSA, 250 g/ha alone
  % control score, Obs: 70%
Weeds [2]; ECHCG, 15.625 g/ha alone
  % control score, Obs: 2%
Weeds [2]; ECHCG, 62.5 g/ha alone
  % control score, Obs: 40%
Weeds [2]; ECHCG, 250 g/ha alone
  % control score, Obs: 70%
Weeds [2]; PANMI, 15.625 g/ha alone
  % control score, Obs: 1%
Weeds [2]; PANMI, 62.5 g/ha alone
  % control score, Obs: 35%
Weeds [2]; PANMI, 250 g/ha alone
  % control score, Obs: 70%
Weeds [2]; SETFA, 15.625 g/ha alone
  % control score, Obs: 2%
Weeds [2]; SETFA, 62.5 g/ha alone
  % control score, Obs: 50%
Weeds [2]; SETFA, 250 g/ha alone
  % control score, Obs: 80%
Weeds [2]; SIDSP, 15.625 g/ha alone
  % control score, Obs: 15%
Weeds [2]; SIDSP, 62.5 g/ha alone
  % control score, Obs: 40%
Weeds [2]; SIDSP, 250 g/ha alone
  % control score, Obs: 50%
Weeds [3]; HST inhibitor rate 15.625 g/ha
  BRAPL Obs, % control score: 0%
  DIGSA Obs, % control score: 0%
  ECHCG Obs, % control score: 0%
  PANMI Obs, % control score: 0%
  SETFA Obs, % control score: 0%
  SIDSP Obs, % control score: 0%
Weeds [3]; HST inhibitor rate 62.5 g/ha
  BRAPL Obs, % control score: 2%
  DIGSA Obs, % control score: 0%
  ECHCG Obs, % control score: 50%
  PANMI Obs, % control score: 0%
  SETFA Obs, % control score: 25%
  SIDSP Obs, % control score: 0%
Weeds [3]; HST inhibitor rate 250 g/ha
  BRAPL Obs, % control score: 50%
  DIGSA Obs, % control score: 30%
  ECHCG Obs, % control score: 80%
  PANMI Obs, % control score: 60%
  SETFA Obs, % control score: 60%
  SIDSP Obs, % control score: 10%

## CC(C)(C)C(=O)Oc1c(-c2c(F)ccc(Cl)c2Cl)c(=O)n(CC(F)F)c2nccnc12 [Compound 2.25]
Weeds [2]; BRAPL, 15.625 g/ha alone
  % control score, Obs: 15%
Weeds [2]; BRAPL, 62.5 g/ha alone
  % control score, Obs: 30%
Weeds [2]; BRAPL, 250 g/ha alone
  % control score, Obs: 60%
Weeds [2]; DIGSA, 15.625 g/ha alone
  % control score, Obs: 0%
Weeds [2]; DIGSA, 62.5 g/ha alone
  % control score, Obs: 2%
Weeds [2]; DIGSA, 250 g/ha alone
  % control score, Obs: 10%
Weeds [2]; ECHCG, 15.625 g/ha alone
  % control score, Obs: 1%
Weeds [2]; ECHCG, 62.5 g/ha alone
  % control score, Obs: 2%
Weeds [2]; ECHCG, 250 g/ha alone
  % control score, Obs: 30%
Weeds [2]; PANMI, 15.625 g/ha alone
  % control score, Obs: 2%
Weeds [2]; PANMI, 62.5 g/ha alone
  % control score, Obs: 10%
Weeds [2]; PANMI, 250 g/ha alone
  % control score, Obs: 55%
Weeds [2]; SETFA, 15.625 g/ha alone
  % control score, Obs: 1%
Weeds [2]; SETFA, 62.5 g/ha alone
  % control score, Obs: 5%
Weeds [2]; SETFA, 250 g/ha alone
  % control score, Obs: 40%
Weeds [2]; SIDSP, 15.625 g/ha alone
  % control score, Obs: 10%
Weeds [2]; SIDSP, 62.5 g/ha alone
  % control score, Obs: 30%
Weeds [2]; SIDSP, 250 g/ha alone
  % control score, Obs: 40%
Weeds [3]; HST inhibitor rate 15.625 g/ha
  BRAPL Obs, % control score: 0%
  DIGSA Obs, % control score: 0%
  ECHCG Obs, % control score: 0%
  PANMI Obs, % control score: 0%
  SETFA Obs, % control score: 0%
  SIDSP Obs, % control score: 0%
Weeds [3]; HST inhibitor rate 62.5 g/ha
  BRAPL Obs, % control score: 2%
  DIGSA Obs, % control score: 0%
  ECHCG Obs, % control score: 0%
  PANMI Obs, % control score: 0%
  SETFA Obs, % control score: 1%
  SIDSP Obs, % control score: 1%
Weeds [3]; HST inhibitor rate 250 g/ha
  BRAPL Obs, % control score: 20%
  DIGSA Obs, % control score: 5%
  ECHCG Obs, % control score: 30%
  PANMI Obs, % control score: 10%
  SETFA Obs, % control score: 15%
  SIDSP Obs, % control score: 2%

## COCCOCc1nc(C(F)(F)F)ccc1C(=O)C1=C(O)C2CCC(C2)C1=O (stereo not shown) [Compound A22, 4-hydroxy-3-[[2-(2-methoxyethoxy)methyl]-6-(trifluoromethyl)-3-pyridinylicarbonyl]-bicyclo[3.2.1]oct-3-en-2-one, reference compound]
Weeds [2]; BRAPL, A22 alone 2 g/ha
  % control score, Obs: 2%
Weeds [2]; DIGSA, A22 alone 2 g/ha
  % control score, Obs: 5%
Weeds [2]; ECHCG, A22 alone 2 g/ha
  % control score, Obs: 30%
Weeds [2]; PANMI, A22 alone 2 g/ha
  % control score, Obs: 50% and 55%
Weeds [2]; SETFA, A22 alone 2 g/ha
  % control score, Obs: 10% and 2%
Weeds [2]; SIDSP, A22 alone 2 g/ha
  % control score, Obs: 20% and 15%
Weeds [3]; rate 2 g/ha
  BRAPL Obs, % control score: 0%
  DIGSA Obs, % control score: 2% and 0%
  ECHCG Obs, % control score: 5% and 0%
  PANMI Obs, % control score: 0%
  SETFA Obs, % control score: 5% and 0%
  SIDSP Obs, % control score: 2% and 0%
